Source: patent publication US20090247634A1, “Methods for identifying modulators of eoxin formation” (priority 2006, published 2009)
Values joined by “and” are separate entries in the source; they are usually repeats but may differ in a detail not shown here. Identical values can stand only once. One block for each compound: values may come before it.

What was measured:
neutrophils = test: Oxidative metabolism of neutrophils, lucigenin-enhanced chemiluminescence; type: cell-based, human
Method: Neutrophil and eosinophil granulocytes were purified from peripheral whole blood using a Percoll gradient and the magnetic cell separation system (MACS).
Granulocytes were primed for 30 minutes at 37° C. with either IL-5 (10.5 ng/mL) or GM-CSF (10.5 ng/mL) and subsequently stimulated with IL-5 (100 ng/mL), GM-CSF (100 ng/mL), LTB4 (10^−7M) or Eoxin (10^−8-10^−6M). Oxidative metabolism was measured by a lucigenin-enhanced chemiluminescence (CL) assay.

[1] = tested on: guinea pig pulmonary parenchymal strip or ileum; details: cited from earlier work
[2] = tested on: confluent bovine endothelium cells; test: Endothelial cell barrier function (TEER), Example 6a; type: cell-based
Method: Bovine aorta endothelial cells (BAEC) and human umbilical vein endothelial cells (HUVEC) were isolated and cultured with calf serum or human serum. BAEC or HUVEC in the first to fifth passages were detached by brief (2 min) trypsin-EDTA treatment (0.25% trypsin/0.01% EDTA) and replated onto 3.0 μm pore size polycarbonate filters (Tissue Culture inserts, 10 mm; NUNC, Roskilde, Denmark) or, for the purpose of visual inspection, 0.2 μm pore size Anopore inorganic membrane (transparent when wet). In order to promote cellular differentiation and enhance attachment of EC, the filters were pretreated with 50 μl Biomatrix 1 (167 μg/ml) and air-dried. EC were seeded at a density of 2×10^5 cells per filter and incubated in culture medium at 37° C. in a humidified atmosphere of 5% CO2 in air. The EC were grown to confluent monolayers, as assessed by daily microscopic observation, in transparent 0.2 μm pore size filters and measurement of the electrical resistance across the monolayer. Under these experimental conditions maximal resistance is obtained at day 7 postseeding, at which day the EC monolayers were then used in the experiments.
Rapid changes in endothelial cell (EC) barrier function in response to various arachidonic acid metabolites were analysed through continuous registration of transendothelial electrical resistance (TEER) with electrodes on each side of EC monolayer^18. For measurement of TEER, the filter insert with ECs was transferred to a resistance measurement chamber (Endohm-12, World Precision Instruments, Sarasota, Fla., USA) modified so as to assure exact positioning of the electrodes in relation to each other and to the filter insert daring repeated measurements. The chamber (low compartment) and the filter insert (upper compartment) were filled with 2 ml and 400 μl culture medium, respectively. All measurements were made at 37° C. with the equipment placed in a cell culture incubator. Direct readings of the electrical resistance were given by an ohmmeter (Evom, World Precision Instruments, Sarasota, Fla., US) connected to the electrodes of the resistance chamber. The electrical resistance of individual EC monolayers was obtained by subtracting the resistance of the corresponding naked filter coated with Biomatrix as measured prior to seeding of the EC. Thus, TEER values represent the resistance of the EC monolayer solely and depend on the development of tight junctions between adjoining endothelial cells.

[3] = Non-enzymatic metabolism during incubation at 37° C.; type: physicochemical; details: 60 min incubation at 37° C.
Method: In order to analyze if eosinophils can metabolize 14,15-LTC4 to 14,15-LTD4 and 14,15-LTE4, eosinophils were incubated with synthetic 14,15-LTC4 or 14 (R)-cysteinyl-glycyl-15(S)-hydroxy-5,8,10,12(Z,Z,E,E)-eicosatetraenoic acid (14,15-LTD4) for 60 min at 37° C. The metabolites formed were analyzed with product ion scan at 497.2 m/z for 14,15-LTD4 and 440.2 m/z for 14,15-LTE4. The retention time and mass spectrum of a product formed (Metabolite 2) from 14,15-LTC4 were identical to synthetic 14,15-LTD4 (FIG. 30B), and a product formed (Metabolite 3) after incubation with 14,15-LTD4 had identical retention time and mass spectrum as synthetic 14 (R)-cysteinyl-15(S)-hydroxy-5,8,10,12(Z,Z,E,E)-eicosatetraenoic (14,15-LTE4) (FIG. 30C). […] (data not shown). Basically, the product ion mass spectra of 14,15-leukotrienes and corresponding 5-lipoxygenase derived cysteinyl-leukotrienes are almost identical. However, 14,15-leukotrienes form a fragment at 205 m/z, whereas the corresponding fragment in 5-lipoxygenase derived cysteinyl-leukotrienes is at 189 m/z (FIG. 31). These collision induced dissociation products are probably formed by a cleavage next to the carbon where the cysteinyl group is positioned, which is at carbon 14 for 14,15-leukotrienes and carbon 6 for leukotrienes.

eosinophils [4] = test: Metabolism in eosinophils after 5 min of incubation; details: 5 min of incubation, 37° C.
Method: (§1) Human eosinophils contain abundant amounts of both 15-lipoxygenase and 5-lipoxygenase. […] The cells were incubated for five minutes at 37° C. and the amounts of 14,15-LTC4 and LTC4 were analyzed with RP-HPLC. […] Therefore, measurement of these metabolites is considered to reflect the total formation of 15-lipoxygenase derived cysteinyl-containing 14,15-leukotrienes and 5-lipoxygenase derived cysteinyl-containing leukotriens, respectively.

[5] = tested on: cord blood derived mast cells; test: Biosynthesis of 14,15-LTC4 in IL-4 primed cord blood derived mast cells (EIA); type: cell-based, human; details: arachidonic acid (10 μM), 5 min, n=3
Method: Mast cells play a key role in the pathophysiology of asthma. Recently, we reported that interleukin-4 (IL-4) induced the expression of 15-LO-1 in human cord blood derived mast cells in vitro and that mast cells express 15-LO-1 in vivo (4). Therefore, it was of interest to investigate if mast cells could produce 14,15-leukotrienes. IL-4 primed mast cells were incubated with arachidonic acid (10 μM) for 5 min. Supernatants were collected and analyzed using an EIA against 14,15-LTC4. Under these conditions, human mast cells released 0.8+/−0.6 pmol/10^6 cells, (n=3), indicating the capacity to synthesise and release immunoreactive 14,15-LTC4 after arachidonic acid stimulation.
Prior to incubation, CBMC cells were primed for four days with IL-4 (10 ng/ml). After mechanical removal and washing in PBS, cells were resuspended in PBS and pre-incubated with or without indomethacin (1 μM) for 2 minutes in 37° C. The CBMC cells were subsequently incubated in 37° C. with arachidonic acid for indicated time periods. Incubations were terminated either by addition of one volume of methanol (LC-MS analysis) or by rapid cool off, 0° C., and subsequently analyzed by EIA.

eosinophils [6] = test: Biosynthesis of 14,15-LTC4 and LTC4 in eosinophils (RP-HPLC); type: cell-based, human; details: arachidonic acid (10 μM), 5 min, 37° C.; one line per donor 1-11
Method: as §1
Isolated eosinophils (1-20×10^6/sample) were resuspended in phosphate buffered saline (1 ml/sample) and pre-incubated for 2 minutes in 37° C. (in presence or absence of indomethacin, 1 μM) prior to stimulation with ionophore A23187 (1 μM)/arachidonic acid (1 or 10 μM)/A23187 plus arachidonic acid/PGD2 (1 μM)/LTC4 (1 μM)/IL-5 (10 ng/ml)/14,15-LTC4 (10 μM) or 14,15-LTD4 (10 μM) for indicated time periods at 37° C. The incubations were terminated by addition of one volume of methanol (for analysis by RP-HPLC). For subsequent analysis by enzyme immunoassay (EIA), reactions were terminated by rapid cool off, 0° C., before centrifugation at 1200×g, 5 min. Supernatants were transferred to cryo tubes and stored in −70° C. until analyzed.
In order to get rid of cellular debris and proteins, centrifugation at 1200×g for 5 min. was performed. Supernatants were evaporated under reduced pressure and the residues resolved in methanol and transferred to a test tube. Samples were thereafter evaporated to dryness under a stream of nitrogen, and finally resuspended in 200 μl mobile phase (acetonitril:methanol:H20:acetic acid, 29:19:72:0.8, pH adjusted to 5.6 with NH3 for analysis of leukotrienes and 14,15-leukotrienes, and methanol:water:trifluoroacetic acid 70:30:0.007 for analysis of monohydroxy acids). The extracted samples were subjected to analysis in a reverse phase HPLC system as described. Briefly, samples were applied to a octadecyl reverse phase column (Chromabond ^18C, Macherey-Nagel, Duren, Germany) and elution rate was 1.2 ml/minute.

[7] = tested on: human endothelial cell (EC) monolayers; type: cell-based; details: no granulocytes present
Excerpt: To explore the ability of 14,15-LTC4 and its metabolites 14,15-LTD4 and 14,15-LTE4 to induce alterations in vascular permeability, an established in vitro permeability assay based on assessment of changes in electrical resistance across human endothelial cell (EC) monolayers was used. Maximum stimulus-induced change in EC resistance in this model reaches down to approximately −70%.
Human umbilical vein endothelial cells (HUVEC) were isolated and cultured as previously described (24). The cells were seeded onto 3 μm pore size polycarbonate filters (Tissue Culture inserts, 10 mm; NUNC, Roskilde, Denmark) at a density of 2×10^5 cells and grown to confluent monolayers. The capacity of arachdonic acid metabolites to induce changes in barrier function of endothelial cell (EC) monolayers was analyzed through continuous registration of transendothelial electrical resistance (TEER) (24). For measurement of TEER, the filter insert with ECs was transferred to a resistance measurement chamber (Endohm-12, World Precision Instruments, Sarasota, Fla., USA) modified so as to assure exact positioning of the electrodes in relation to each other and to the filter insert during repeated measurements. […] The electrical resistance of individual EC monolayers was obtained by subtracting the resistance of the corresponding naked filter coated with Biomatrix as measured prior to seeding of the EC. […]

non-enzymatic metabolism [3]: no non-enzymatic metabolism
metabolism in eosinophils (eosinophils [4]): almost no metabolism
SMILES: CCCCC[C@H](O)[C@@H](/C=C/C=C/C=C\C/C=C\CCCC(=O)O)SC[C@H](NC(=O)CC[C@H](N)C(=O)O)C(=O)NCC(=O)O [EoxC4, 14 (R)-glutathionyl-15 (S)-hydroxy-5,8,10,12 (Z,Z,E,E)-eicosatetraenoic acid]
radical production by GM-CSF primed neutrophils (neutrophils; GM-CSF (10.5 ng/mL) primed, Eoxin 10^−8-10^−6M): induced the radical production by GM-CSF primed neutrophils in a dose-dependent manner
responders (neutrophils; GM-CSF primed neutrophils): 7-8 subjects of 13
bronchoconstriction ([1]; Drazen et al. 1981): did not induce bronchoconstriction
contractile effects ([1]; guinea pig pulmonary parenchymal strip or ileum): appear not to have contractile effects
plasma leakage / change in TEER ([2]; 10^−7 and 10^−8 M): induce significant plasma leakage
potency relative to the most potent 5-lipoxygenase derived leukotrienes ([2]; FIG. 22): about five to ten times less potent

SMILES: CCCCC/C=C\C/C=C\C/C=C\C/C=C\CCCC(=O)O [Arachidonic acid]
14,15-LTC4 released by mast cells [5]: 0.8+/−0.6 pmol/10^6 cells
14,15-LTC4 (eosinophils [6]): 58 pmol/10^7 and 74 pmol/10^7 and 34 pmol/10^7 and 12 pmol/10^7 and 26 pmol/10^7 and 46 pmol/10^7 and 16 pmol/10^7 and 22 pmol/10^7 and 48 pmol/10^7 and 40 pmol/10^7 and 32 pmol/10^7
LTC4 (eosinophils [6]): 34 pmol/10^7 and 12 pmol/10^7 and 20 pmol/10^7 and 0 pmol/10^7 (4×) and 6 pmol/10^7 and 10 pmol/10^7 and 38 pmol/10^7 and 22 pmol/10^7

SMILES: CCCCC/C=C\C[C@@H](O)/C=C/C=C/C=C\[C@@H](O)CCCC(=O)O [LTB4, leukotriene B4]
oxygen free radical production by non-primed neutrophils (neutrophils; non-primed blood neutrophils, GM-CSF 100 ng/mL, LTB4 10^−7M, Eoxin 10^−8-10^−6M): induced the oxygen free radical production
effect on EC barrier function [7]: no effect
